Structures can show the parent of a compound that is named as a salt.
What was measured:
[1] = test system: experimental autoimmune encephalomyelitis (EAE) model; assay: Pharmacodynamics on EAE model (MOG 35-55 induced), EAE score and H&E/LFB staining of cervical spinal cord; assay type: in vivo, C57BL/6 mice; details: for incidence of EAE: intragastric administration (FIG. 5, FIG. 6)
Sprague Dawley rats = assay: 7-day repeated intragastric toxicity in rats; assay type: in vivo; details: intragastrically daily at 75, 150, 300 mg/kg for 7 consecutive days, 3 males and 3 females per group
Description: Sprague Dawley rats, each group having 3 males and 3 females were administrated intragastrically daily at 75, 150, 300 mg/kg respectively for 7 consecutive days.

Mice = assay: Single-dose toxicity in mice; assay type: in vivo; details: for deaths: three males and three females
Description: Mice were divided into four groups for each having three males and three females and treated by compound 1 at a single-dose of 200, 600, 1800 and 5400 mg/kg, respectively.

[2] = Bioavailability by oral administration; assay type: in vivo
[3] = test system: experimental autoimmune encephalomyelitis (EAE) model; details: mice; cited from earlier work
[4] = crystal type A, 15 mg/kg once daily oral gavage, vs EAE model group
[5] = 30 mg/kg/day intragastrically, vs EAE model group

Row | Structure (SMILES) | onset of EAE ([1]; crystal type A in injection water, 15 mg/kg once daily oral gavage from day 0) | course of EAE ([1]; crystal type A, 15 mg/kg once daily oral gavage) | disease severity (EAE score) ([1]; crystal type A, 15 mg/kg once daily oral gavage from day 0) | demyelination (LFB staining) ([1]; crystal type A, 15 mg/kg once daily oral gavage, vs EAE model control) | arrangement of the organization (blood vessel and tissue) [1, 4] | inflammatory cells (H&E analysis) [1, 4] | incidence of EAE [1] | toxic reactions (Sprague Dawley rats) | course of EAE ([1]; 30 mg/kg) | disease severity (EAE score) ([1]; 30 mg/kg/day intragastrically, from day 0 of immunization, 30 days) | onset of EAE ([1]; 30 mg/kg/day intragastrically, from day 0 of immunization, 30 days, in 0.5% CMC-Na) | arrangement of the organization (blood vessel and tissue) [1, 5] | demyelination (LFB staining) [1, 5] | inflammatory cells (H&E analysis) [1, 5] | deaths (Mice; single dose 1800 mg/kg) | deaths (Mice; single dose 5400 mg/kg) | toxic reactions (Mice; single dose 200 and 600 mg/kg, three males and three females per group) | bioavailability by oral administration [2] | therapeutic effect on EAE model [3]
1 | CC(=O)O[C@H]1C[C@H](OC(C)=O)[C@]2(C)[C@@H]1[C@H](C)C[C@@H]1OC(=O)[C@H](CN(C)C)[C@H]1[C@@H]2OC(C)=O [Compound IV, dimethylamine 4-O-acetyl inula lineariifolia lactone A fumarate] | delayed | ameliorated | reduced | significant lower | basically returned to normal condition | reducing | significantly reduce | No obvious toxic reactions were observed |  |  |  |  |  |  |  |  |  |  | 
2 | CC(=O)O[C@H]1C[C@H](OC(C)=O)[C@]2(C)[C@@H]1[C@H](C)C[C@@H]1OC(=O)[C@H](CN(C)C)[C@H]1[C@@H]2OC(C)=O [Compound I, dimethylamine 4-O-acetyl inula lineariifolia lactone A] |  |  |  |  |  |  | significantly reduce |  | ameliorated | reduced | delayed | basically returned to normal condition | significantly reduced | reduced | One female mouse died | Five mice except one male mouse died | No obvious toxic reactions were observed |  | 
3 | C=C1C(=O)O[C@H]2C[C@@H](C)[C@@H]3[C@@H](OC(C)=O)C[C@H](O)[C@@]3(C)[C@@H](OC(C)=O)[C@H]12 [Inula lineariifolia lactone A] |  |  |  |  |  |  |  |  |  |  |  |  |  |  |  |  |  | low | good therapeutic effect

— patent publication US10273220B2, “Derivative of Inula lineariifolia lactone A” (SHANXI ZHENDONG LEADING BIOTECHNOLOGY CO., LTD., priority 2015, dated 2019)
